These results are taken from ChEMBL document CHEMBL1201862, “PubChem BioAssay data set” (2004).

Experiment [1] is described as follows: microbe, parasite or virus in culture. In kind it is functional. The conditions noted are these: Mycobacterium tuberculosis.
The target in experiment [2] is Nonstructural protein 1 (Influenza A virus, UniProt Q194T2). In kind it is functional, Influenza A virus (A/California/07/2009(H1N1)).
The nature of experiment [3]: HepG2 cell cytotoxicity, dose response, cytotoxicity control, ATP luminescence, cherry-pick, activator set 2 (AID 1053143). In kind it is functional, cell-based.
A short description of experiment [4]: Luminescence Cell-Based Dose Response HTS to Identify Inhibitors of 5'UTR Stem-Loop Driven Prion Protein mRNA Translation in H4 Neuroglioblastoma Cells. [Related pubchem assays: 1827 (Project Summary), 1813 (Primary HTS)]. In kind it is functional.
Experiment [5] addresses Beta-galactosidase (Escherichia coli, UniProt Q8VNN2). Put plainly: PubChem AID 485352. In kind it is functional.
Experiment [6] can be described thus: inhibitors of SNCA 5'UTR-driven reporter translation, confirmation, H4 neuroglioma cells, luminescence (AID 1988). In kind it is functional, cell-based.
For experiment [7], the system named is Streptococcus. As to the kind of experiment: Luminescence Microorganism-Based Dose Response Follow up to Identify Compounds Cytotoxic to Streptococcus. [Related pubchem assays: 1677 (Project Summary), 1915, 1914, 1902 (Retest at Dose), 1900 (Counter Screen), 1662 (Primary HTS)]. In kind it is functional, organism-based. (In general: A counterscreen serves to expose hits that act by an unwanted route or on another target.)

Experiment [8] has as its target Beta Lactamase (Pseudomonas aeruginosa, UniProt Q932Y6). As to the kind of experiment: beta-lactamase reporter inhibitor potency, dose response, artefact control for TLR9-MyD88 binding inhibitor project, BLA reporter cells, FRET fluorescence (AID 588341).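 Also: cell based assay in CHO-K1 cells stably expressing beta-lactamase.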 In kind it is cell-based.
Experiment [9] addresses Melanocortin receptor 4 (Homo sapiens, UniProt P32245). As to the kind of experiment: MC4R antagonist potency on cAMP, dose response, cell-based, TR-FRET, biased antagonists (AID 602298).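 Also: antagonist potency against agonist-stimulated cAMP production.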 In kind it is functional. On the technique in general: TR-FRET usually uses a lanthanide donor and a delayed reading to cut background.
The nature of experiment [10]: Shn3 3'UTR reporter inhibitors, dose response, cell-based, Clone20 osteoblasts, firefly luciferase, cherry-picked (AID 624132).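 Also: firefly luciferase luminescence from reporter carrying the Shn3 3'UTR in osteoblasts.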 In kind it is functional.
The nature of experiment [11]: control 3'UTR Renilla luciferase suppression, dose response, counter-screen for Shn3 inhibitor project, cell-based, Clone20-Shn3RL, cherry-picked (AID 624133). In kind it is functional.
The nature of experiment [12]: nonselective inhibitors of cellular cAMP signaling, dose response, counter-screen for MC4R biased antagonist project, cell-based, TR-FRET cAMP detection (AID 602305).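 Also: U2OS cells stimulated with forskolin near its EC80 as the cAMP inducer; potency is for inhibition of forskolin-stimulated cAMP signaling.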 In kind it is functional.
The target in experiment [13] is Paired box protein Pax-8 (Homo sapiens, UniProt Q06710). As to the kind of experiment: inhibitors of PAX8-driven TPO luciferase reporter, dose response, RMG-I cells, cherry-pick (AID 687027).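 Also: luciferase reporter driven by Pax8 target thyroperoxidase promoter measured by SteadyGlo luminescence.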 In kind it is functional, cell-based. (In general: Reporter assays use an easily measured gene product as a stand-in for the process of interest.)
Sequence of Paired box protein Pax-8 (Q06710 whole entry): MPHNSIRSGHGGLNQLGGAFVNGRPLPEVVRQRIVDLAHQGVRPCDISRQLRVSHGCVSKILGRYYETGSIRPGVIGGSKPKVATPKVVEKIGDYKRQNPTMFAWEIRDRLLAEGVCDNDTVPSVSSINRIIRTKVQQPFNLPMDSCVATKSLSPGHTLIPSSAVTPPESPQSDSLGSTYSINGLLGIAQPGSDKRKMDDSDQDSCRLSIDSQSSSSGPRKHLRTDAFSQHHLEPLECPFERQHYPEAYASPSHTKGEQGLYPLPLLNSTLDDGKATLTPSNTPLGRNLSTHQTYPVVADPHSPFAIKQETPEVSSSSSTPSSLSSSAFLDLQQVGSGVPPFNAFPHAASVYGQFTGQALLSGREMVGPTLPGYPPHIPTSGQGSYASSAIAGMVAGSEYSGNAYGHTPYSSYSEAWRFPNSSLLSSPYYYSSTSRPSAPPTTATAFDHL
Experiment [14] in a line: non-specific cell cytotoxicity, dose response, cytotoxicity control for PAX8 inhibitor project, plate reader, dry powder samples (AID 743021). In kind it is functional, cell-based.

Activity calls are given as the source filed them.

Sequence of Beta-galactosidase (Q8VNN2 whole entry): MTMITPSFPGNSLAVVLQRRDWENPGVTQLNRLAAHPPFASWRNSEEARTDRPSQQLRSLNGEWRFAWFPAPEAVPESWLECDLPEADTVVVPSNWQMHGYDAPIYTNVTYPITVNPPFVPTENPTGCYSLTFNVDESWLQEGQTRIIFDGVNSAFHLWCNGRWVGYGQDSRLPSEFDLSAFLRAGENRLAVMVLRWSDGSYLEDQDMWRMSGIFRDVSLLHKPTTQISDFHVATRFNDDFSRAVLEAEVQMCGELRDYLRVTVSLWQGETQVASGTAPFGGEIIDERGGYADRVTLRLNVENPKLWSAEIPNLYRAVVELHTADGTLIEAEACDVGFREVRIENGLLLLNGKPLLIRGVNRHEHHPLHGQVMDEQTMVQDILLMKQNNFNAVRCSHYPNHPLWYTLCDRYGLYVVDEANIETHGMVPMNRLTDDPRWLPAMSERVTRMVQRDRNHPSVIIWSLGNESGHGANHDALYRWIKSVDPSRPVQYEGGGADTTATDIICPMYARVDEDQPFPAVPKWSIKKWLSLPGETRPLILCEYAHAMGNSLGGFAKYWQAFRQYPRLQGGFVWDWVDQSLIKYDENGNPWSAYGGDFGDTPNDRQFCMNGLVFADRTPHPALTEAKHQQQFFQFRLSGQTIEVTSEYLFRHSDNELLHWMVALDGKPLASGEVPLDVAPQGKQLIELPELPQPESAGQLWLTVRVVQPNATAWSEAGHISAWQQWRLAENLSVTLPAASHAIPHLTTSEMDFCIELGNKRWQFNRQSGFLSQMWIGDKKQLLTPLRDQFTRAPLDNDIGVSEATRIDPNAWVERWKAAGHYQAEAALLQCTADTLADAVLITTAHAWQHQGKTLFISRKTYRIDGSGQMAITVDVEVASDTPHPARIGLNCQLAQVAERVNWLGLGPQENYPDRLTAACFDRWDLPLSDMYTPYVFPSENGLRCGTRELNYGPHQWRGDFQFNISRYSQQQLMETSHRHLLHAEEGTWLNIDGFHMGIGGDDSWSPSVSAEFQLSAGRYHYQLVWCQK
Sequence of Beta Lactamase (Q932Y6 whole entry): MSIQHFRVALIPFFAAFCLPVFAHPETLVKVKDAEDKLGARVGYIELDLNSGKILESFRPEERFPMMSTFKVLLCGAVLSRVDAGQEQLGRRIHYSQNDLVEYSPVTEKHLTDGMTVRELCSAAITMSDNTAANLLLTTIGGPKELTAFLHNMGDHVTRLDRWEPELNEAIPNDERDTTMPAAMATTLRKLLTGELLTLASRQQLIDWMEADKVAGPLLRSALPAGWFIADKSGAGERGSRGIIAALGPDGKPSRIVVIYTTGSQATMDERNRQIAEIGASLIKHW
Sequence of Nonstructural protein 1 (Q194T2 whole entry): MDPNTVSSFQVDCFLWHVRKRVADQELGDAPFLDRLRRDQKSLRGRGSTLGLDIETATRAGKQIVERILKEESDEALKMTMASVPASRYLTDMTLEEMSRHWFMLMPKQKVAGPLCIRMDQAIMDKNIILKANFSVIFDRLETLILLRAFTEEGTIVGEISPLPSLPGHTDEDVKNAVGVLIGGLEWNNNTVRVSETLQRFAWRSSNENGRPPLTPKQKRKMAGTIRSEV
Sequence of Melanocortin receptor 4 (P32245 whole entry): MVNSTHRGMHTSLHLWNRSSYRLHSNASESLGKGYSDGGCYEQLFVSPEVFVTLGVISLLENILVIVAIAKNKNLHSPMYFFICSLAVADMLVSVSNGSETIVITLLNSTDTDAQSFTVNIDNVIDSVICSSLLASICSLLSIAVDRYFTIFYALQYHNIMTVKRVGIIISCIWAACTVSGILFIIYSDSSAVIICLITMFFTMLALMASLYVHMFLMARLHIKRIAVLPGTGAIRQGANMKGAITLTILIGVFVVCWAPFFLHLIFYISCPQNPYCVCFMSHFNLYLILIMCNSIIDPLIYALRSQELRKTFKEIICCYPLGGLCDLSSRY

By IC50 is commonly meant the concentration needed to halve the response being measured. As usually defined, the AC50 is the concentration at which the activity in the assay is half-maximal. As for `CC(=O)c1cccc2c1N=C(c1[nH]c3ccccc3c1O)C2=O`, in [1], the CC50 was > 40 µM (active). The IC50 in experiment [2] was 13.9 µM (active). Besides, the AC50 in [3] was 22.4 µM (active).

One may read the EC50 as the concentration that produces a half-maximal response. On to `CCC1CCCCN1S(=O)(=O)c1ccc(NC(=O)c2nc(S(C)(=O)=O)ncc2Cl)cc1` (centres undefined), for which the EC50 in [4] is 11.8 µM (active); in experiment [5], > 40 µM (inactive); in [6], 9.69 µM (active); in experiment [7], 16.5 µM (active). The IC50 in experiment [8] was 11.1 µM (inactive); in experiment [9] it was 1.17 µM (active); in experiment [12] it was > 64.6 µM (inactive). For the same compound, the concentration at half-maximal activity (AC50) in experiment [10] was 0.341 µM (active); in experiment [11], 2.46 µM (active); in experiment [13] it was 5.67 µM (active); in [14], 20.8 µM (active).
